The source made the active and inactive calls. No cut-off for these calls is given here.
Tests used:
[1] = Cytotoxicity against human WI26 cells assessed as reduction in cell viability measured after 72 hrs by MTT assay
A549 [2] = assay: cells; details: Homo sapiens, A549, 72 h
Description: Antiproliferative activity against human A549 cells measured after 72 hrs by MTT assay

[3] = target: T1, Aminoacyl tRNA synthase complex-interacting multifunctional protein 2 (Homo sapiens, UniProt Q13155); assay: Inhibition of nanoluciferase-tagged AIMP2 (unknown origin) expressed in human A549 cells measured after 4 hrs by luminescence assay; format: cell-based
T1 sequence (Q13155 whole entry): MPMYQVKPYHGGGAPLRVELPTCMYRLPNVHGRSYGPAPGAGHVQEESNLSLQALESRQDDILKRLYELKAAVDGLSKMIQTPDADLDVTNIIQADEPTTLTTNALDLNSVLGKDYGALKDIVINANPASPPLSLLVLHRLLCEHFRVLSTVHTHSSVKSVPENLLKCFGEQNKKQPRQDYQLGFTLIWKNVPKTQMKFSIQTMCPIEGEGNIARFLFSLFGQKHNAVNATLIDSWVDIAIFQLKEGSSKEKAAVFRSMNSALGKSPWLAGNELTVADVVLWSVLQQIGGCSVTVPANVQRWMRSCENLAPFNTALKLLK

[4] = target: Aminoacyl tRNA synthase complex-interacting multifunctional protein 2 (Homo sapiens, UniProt Q13155); assay: Inhibition of nanoluciferase-tagged AIMP2 DX2 isoform (unknown origin) expressed in human A549 cells measured after 4 hrs by luminescence assay; format: cell-based
A549 [5] = details: Homo sapiens, 5 uM
Description: Inhibition of LgBiT-tagged PRKACA-SmBiT-tagged PRKAR2A (unknown origin) protein-protein interaction expressed in human A549 cells at 5 uM measured after 4 hrs by luminescence assay

NCI-H460 [6] = assay: Antitumor activity against human H460 cells xenografted in BALB/c SLC nu/nu mouse assessed as reduction in tumor weight at 50 mg/kg, ip administered every other day for 15 days and measured post-last dose; format: functional, organism-based
A549 [7] = assay: Antiproliferative activity against human A549 cells stably expressing AIMP2 DX2 isoform measured after 72 hrs by MTT assay; format: functional, cell-based
NCI-H460 [8] = assay: Antitumor activity against human H460 cells xenografted in BALB/c SLC nu/nu mouse assessed as reduction in tumor volume at 50 mg/kg, ip administered every other day for 15 days and measured 4 times during compound dosing; format: functional, organism-based
[9] = Toxicity in human H460 cells xenografted BALB/c SLC nu/nu mouse assessed as change in body weight at 50 mg/kg, ip administered every other day for 15 days and measured 4 times during compound dosing; details: in vivo, 360 h
NCI-H460 [10] = assay: Cytotoxicity against human NCI-H460 3D spheroid cells assessed as reduction in cell viability measured after 72 hrs by Celltiter-glo assay

Structure (SMILES): Cc1ccc(S(=O)(=O)N[C@@H](Cc2c[nH]c3ccccc23)C(=O)Nc2ccc(N3CCOCC3)cc2)cc1
- EC50 [1]: > 100 µM
- EC50 (A549 [2]): 14.2 µM

Structure (SMILES): Cc1ccc(S(=O)(=O)N[C@@H](CC(C)C)C(=O)N2CCOCCOCCOCC2)cc1
- EC50 [1]: > 100 µM
- EC50 (A549 [2]): 40.8 µM
- IC50 [3]: > 100 µM
- IC50 [4]: 40.1 µM

Structure (SMILES): COc1ccc(-c2csc(NC(=O)[C@H](Cc3c[nH]c4ccccc34)NS(=O)(=O)c3ccc(C)cc3)n2)cc1
- inhibition (A549 [5]): inactive
- Activity (NCI-H460 [6]): Active
- Activity (A549 [7]): Active
- Activity (NCI-H460 [8]): Active
- EC50 [1]: > 100 µM
- EC50 (A549 [2]): 1.2 µM
- Activity [9]: Non-Toxic
- Activity (NCI-H460 [10]): Dose-dependent effect

— ChEMBL document CHEMBL4354880, “Synthesis and Structure-Activity Relationships of Arylsulfonamides as AIMP2-DX2 Inhibitors for the Development of a Novel Anticancer Therapy” (J Med Chem, 2020)
